# Test results taken from patent US20150359668A1, “LIGHT DELIVERY DEVICE AND RELATED COMPOSITIONS, METHODS AND SYSTEMS” (CALIFORNIA INSTITUTE OF TECHNOLOGY, priority 2011, published 2015).
# “And” between values parts separate entries of the source, which are not always exact repeats. Equal entries are not always repeated.
# Columns and labels:
# sclera = assay: drug diffusion into the sclera of intact eyes (extraction assay, diffusion model fit); settings: sclera; for diffusivity, D / partition coefficient, k: from DPBS
# Source text: Orbital tissues were removed with scissors to expose the sclera. […] After the contact time, the eye was removed from the drug solution, and excess solution on the sclera was dabbed away with a Kimwipe. The eye was dissected using a scalpel blade and a pair of scissors to obtain a posterior scleral section on the temporal side near the optic nerve. The tissue section was placed onto a trephine punch to cut out a 9.5-mm diameter cross-section.
# (§1) Quantitative assay of the amount of drug delivered—Experiments were performed for five drug contact times (four samples each): for the cornea, tc,cornea=0.25, 0.5, 1, 2, and 4 hrs, and for the sclera, tc,sclera=0.5, 2, 4, 7.5, and 120 hrs. Each experiment was repeated four times. For each experiment, the 9.5-mm diameter tissue cross-section obtained as described above was placed into a 50 mL centrifuge tube and immersed in 50 mL of extractant (doubled-distilled water for cornea or DPBS for sclera) then placed on a rocker to extract the drug molecules (FIG. 40). […] After a first extraction time te,1 of 8 hours, the tissue specimen was then transferred into another 50 mL of fresh extractant and the extract was retained for analysis.
# (§2) The concentration of the drug in the extract was determined using fluorimetry. […] The fluorescence of each extract was measured and concentration was determined based on calibration curves prepared for each compound using a series of solutions with known concentrations. The extraction process was repeated using successively longer extraction times until there was no detectable fluorescence in the supernatant.
# (§3) Porcine eyes closely resemble a sphere with diameter ˜25 mm. The cornea and sclera are the targeted tissues and both have thicknesses that are on the order of 1 mm. Since these tissue thicknesses are less than a tenth of the diameter of the eye, they are modeled as semi-infinite slabs. Each tissue is approximated as a uniform material. Fick's diffusion equation is given by
# (§4) where C(z,t) is the drug concentration inside the tissue, t is the time since the exterior surface of the tissue was placed in contact with the drug solution, z is the distance into the tissue from its exterior surface, and D is the diffusion coefficient. […] For short contact times, the concentration falls to zero before the profile reaches the endothelium. For longer contact times, the boundary condition that the concentration falls to zero far into the system is still used as a first approximation (neglecting the change in material properties at the endothelium and neglects different transport processes in the aqueous or vitreous).
# (§5) where area represents the cross-sectional area of the tissue sample and L is the thickness of the tissue sample. At long drug contact time, the predicted concentration changes very slowly and approaches a value governed by the partition coefficient.
# (§6) with i being the individual data point and N being the total data points used for the fit. Data fitting was performed by writing a program in MATLAB software.
# collagen gel = collagen gel photorheology: storage modulus during photo-activated cross-linking; settings: for cross-linking rate as % of the rate without singlet oxygen quenchers: in air; for rate of change in storage modulus, Ġ′ (increased by): 30-minute irradiation
# guinea pig eyes = assay: guinea pig form-deprivation myopia and normal ocular growth after subconjunctival treatment; settings: Set A, eyes enucleated immediately after treatment
# [1] = physiological pH; cited from earlier work
# cell viability = settings: cited from earlier work
# cornea [2] = assay: model of photodynamic collagen cross-linking profile in the cornea
# Source text: Design of experiments—The collagen gel photorheological technique discussed in Examples 29-31 was used to gather collagen cross-linking rate data in order to model the extent and distribution of cross-link formation in the tissue. Collagen gel samples have uniform drug concentration profiles based on the preparation technique developed Examples 29-31. The protocols for collagen gel preparation and photorheological measurement are described in the Methods Section of Example 29-31. The pairs of drug concentrations and collagen gel thicknesses were selected such that the intensity profile is approximately uniform throughout the sample. Based on light intensity calculations, this is achieved when the ratio of light penetration depth over sample thickness is 1.2. The light intensity profile in the sample is given by:
# Design of the model—Photodynamic collagen cross-linking depends on both the local photosensitizer concentration and the light intensity which are functions of treatment parameters: drug concentration, contact time (duration the drug is in contact with the tissue), delay time (period between end of contact time and beginning of irradiation), and irradiation time (FIGS. 46A-46C). […] The concentration profile can be calculated using Fick's diffusion equation. The light intensity also varies along the tissue as determined by Beer's law. […]
# cornea [3] = assay: drug diffusion into the cornea of intact eyes (extraction assay, diffusion model fit); settings: for diffusivity, D / partition coefficient, k: from DPBS
# Procedure: Siena for Medical Science supplied porcine eyes from 3-4 month old swine. Eyes were stored in ocular balanced saline solution on ice until use within 48 hours post mortem. […] The epithelial cell layer was removed by scraping with a scalpel. […] The drug solution containing the eye was gently agitated using a rocker for a specified “drug contact time” (tc,cornea ranging from 0 to 4 hours). After the drug contact time, the eye was removed from the drug solution, and excess solution on the cornea was dabbed away with a Kimwipe. The eye was dissected using a scalpel blade and a pair of scissors to cut around the corneoscleral limbus to separate out the cornea. The tissue section was placed onto a trephine punch to cut out a 9.5-mm diameter corneal cross-section.
# as §1, §2, §3, §4, §5, §6
# [4] = 0.02% eosin Y or 0.1% riboflavin, 0 mW/cm^2
compound,measurement,setting,value
"O=C([O-])c1ccccc1-c1c2cc(Br)c(=O)c(Br)c-2oc2c(Br)c([O-])c(Br)cc12.[Na+].[Na+] [Eosin Y, eosin Y]",permeability,sclera,0.099 μm/s
same,time for the concentration to level off,sclera,approximately 30 hours
same,"drug in second extract, % of the first extract",sclera; 2 hours contact time,approximately 20%
same,"diffusivity, D",sclera,6.2 ± 1.7 μm^2/s and 6.2 μm^2/s
same,"partition coefficient, k",sclera,13.0±1.1 and 13.0
same,"diffusivity, D",sclera; listed as eosin Y,6.2 μm^2/s
same,"partition coefficient, k",sclera; listed as eosin Y,13
same,"diffusion coefficient without the binding effect, Dab",sclera; Dab=kD,81 μm^2/s
same,cross-linking rate as % of the rate without singlet oxygen quenchers,collagen gel; 10 mM ascorbic acid,43±23%
same,"modulus change during the last 10 minutes, no irradiation",collagen gel; [4],59±34 Pa
same,ΔG′ over the 30-minute period without irradiation,collagen gel; [4],−23±76 Pa
same,modulus change during the 10 minutes after cessation of irradiation,"collagen gel; 0.02% eosin Y, 6 mW/cm^2, 0.1% riboflavin, 3 mW/cm^2",61±136 Pa
same,change of storage modulus ΔG′ over the 30-minute irradiation,"collagen gel; 0.02% eosin Y, 6 mW/cm^2 at 530±15 nm, 0.1% riboflavin, 3 mW/cm^2 at 370±12 nm",793±118 Pa
same,cross-linking rate as % of the rate without singlet oxygen quenchers,collagen gel; 20 mM ascorbic acid,23±10%
same,cross-linking rate as % of the rate without singlet oxygen quenchers,collagen gel; 100 mM ascorbic acid,−7±6%
same,cross-linking rate as % of the rate without singlet oxygen quenchers,collagen gel; 100 mM sodium azide,34±8%
same,cross-linking rate in the absence of oxygen (reduced to),collagen gel; argon vs air,12%
same,"rate of change in storage modulus, Ġ′ (increased by)",collagen gel; in the absence of oxygen (in argon),3.4±2.3 Pa/min
same,"rate of change in storage modulus, Ġ′ (increased by)","collagen gel; in the presence of oxygen (in air), 0.05% riboflavin 370 nm or 0.02% eosin Y 530 nm",28.4±5.1 Pa/min
same,distribution in the sclera after subconjunctival injection,guinea pig eyes,pink staining from Eosin Y over the entire sclera
same,ionization in solution,[1],negatively ionized
same,concentration with excellent cell viability (up to),cell viability,up to 20 mM
same,"characteristic time to penetrate the entire cornea, L^2/(4*D)",cornea [2],~15 min
same,drug contact time at which delivered amount levels off,cornea [3]; cornea,2 h
same,"diffusivity, D",cornea [3]; cornea,62 μm^2/s and 62 ± 22 μm^2/s
same,"partition coefficient, k",cornea [3]; cornea,4.3±0.7 and 4.3
same,"diffusivity, D","cornea [3]; cornea, listed as eosin Y",62 μm^2/s
same,"partition coefficient, k","cornea [3]; cornea, listed as eosin Y",4.3
same,"diffusion coefficient without the binding effect, Dab","cornea [3]; cornea, Dab=kD",267 μm^2/s
same,calculated permeability,cornea [3]; through porcine cornea,0.31 μm/s
